Patent publication US20260049077A1, “Neurotrophic Receptor Tyrosine Kinase (NTRK) Inhibitors and Methods Using Same” (Baylor College of Medicine, priority 2022, published 2026)
Where two headings read alike, the source gives them in different places.

Assays:
STK36 = STK36 (Homo sapiens (Human), UniProt Q9NRP7); assay: Promega K192 cell-based NanoBRET kinase occupancy assay
Experimental: (§1) Similarly, the selectivity of CDD-3031 for NTRK kinases was evaluated in a kinase occupancy assay (Promega K192 cell-based NanoBRET assay) using 192 kinases (Table 4).

JAK2 (V617F) = JAK2 (V617F) (Homo sapiens (Human), UniProt O60674, V617F); assay: as above
Chain of JAK2 (V617F) (O60674 whole entry V617F): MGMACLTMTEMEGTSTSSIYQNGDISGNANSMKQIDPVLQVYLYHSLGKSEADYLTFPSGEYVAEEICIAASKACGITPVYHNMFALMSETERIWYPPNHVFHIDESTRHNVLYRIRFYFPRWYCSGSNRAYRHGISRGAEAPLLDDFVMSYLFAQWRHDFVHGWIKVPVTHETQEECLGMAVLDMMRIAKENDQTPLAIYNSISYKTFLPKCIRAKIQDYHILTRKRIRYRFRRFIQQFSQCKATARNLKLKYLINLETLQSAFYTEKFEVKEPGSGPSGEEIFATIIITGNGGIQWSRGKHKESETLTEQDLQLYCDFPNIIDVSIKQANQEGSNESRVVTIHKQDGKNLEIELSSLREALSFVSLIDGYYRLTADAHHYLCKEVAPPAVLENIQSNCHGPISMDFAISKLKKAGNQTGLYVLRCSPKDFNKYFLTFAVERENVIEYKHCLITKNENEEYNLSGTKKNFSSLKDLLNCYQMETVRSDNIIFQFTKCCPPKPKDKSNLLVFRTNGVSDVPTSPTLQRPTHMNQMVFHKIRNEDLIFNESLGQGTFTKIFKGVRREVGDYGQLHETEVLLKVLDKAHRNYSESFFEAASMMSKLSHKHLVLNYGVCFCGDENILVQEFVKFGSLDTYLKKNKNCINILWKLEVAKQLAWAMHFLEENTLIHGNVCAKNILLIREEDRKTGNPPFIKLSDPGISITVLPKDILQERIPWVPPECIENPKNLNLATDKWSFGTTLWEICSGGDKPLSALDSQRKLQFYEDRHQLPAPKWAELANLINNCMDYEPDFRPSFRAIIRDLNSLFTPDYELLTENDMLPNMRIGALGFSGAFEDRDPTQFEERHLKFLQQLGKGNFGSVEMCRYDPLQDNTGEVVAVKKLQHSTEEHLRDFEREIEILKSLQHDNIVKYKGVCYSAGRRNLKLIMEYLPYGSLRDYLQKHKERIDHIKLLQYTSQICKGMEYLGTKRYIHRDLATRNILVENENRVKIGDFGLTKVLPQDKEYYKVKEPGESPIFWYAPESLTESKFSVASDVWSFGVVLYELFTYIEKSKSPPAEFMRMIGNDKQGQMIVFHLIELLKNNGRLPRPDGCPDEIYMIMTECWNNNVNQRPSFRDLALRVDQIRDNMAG
Experimental: as §1

NEK5 = NEK5 (Homo sapiens (Human), UniProt Q6P3R8); assay: as above
Experimental: as §1

MKNK2 = MKNK2 (Homo sapiens (Human), UniProt Q9HBH9); assay: as above
Experimental: as §1

TIE1 = TIE1 (Homo sapiens (Human), UniProt P35590); assay: as above
Chain of TIE1 (P35590 22-1138): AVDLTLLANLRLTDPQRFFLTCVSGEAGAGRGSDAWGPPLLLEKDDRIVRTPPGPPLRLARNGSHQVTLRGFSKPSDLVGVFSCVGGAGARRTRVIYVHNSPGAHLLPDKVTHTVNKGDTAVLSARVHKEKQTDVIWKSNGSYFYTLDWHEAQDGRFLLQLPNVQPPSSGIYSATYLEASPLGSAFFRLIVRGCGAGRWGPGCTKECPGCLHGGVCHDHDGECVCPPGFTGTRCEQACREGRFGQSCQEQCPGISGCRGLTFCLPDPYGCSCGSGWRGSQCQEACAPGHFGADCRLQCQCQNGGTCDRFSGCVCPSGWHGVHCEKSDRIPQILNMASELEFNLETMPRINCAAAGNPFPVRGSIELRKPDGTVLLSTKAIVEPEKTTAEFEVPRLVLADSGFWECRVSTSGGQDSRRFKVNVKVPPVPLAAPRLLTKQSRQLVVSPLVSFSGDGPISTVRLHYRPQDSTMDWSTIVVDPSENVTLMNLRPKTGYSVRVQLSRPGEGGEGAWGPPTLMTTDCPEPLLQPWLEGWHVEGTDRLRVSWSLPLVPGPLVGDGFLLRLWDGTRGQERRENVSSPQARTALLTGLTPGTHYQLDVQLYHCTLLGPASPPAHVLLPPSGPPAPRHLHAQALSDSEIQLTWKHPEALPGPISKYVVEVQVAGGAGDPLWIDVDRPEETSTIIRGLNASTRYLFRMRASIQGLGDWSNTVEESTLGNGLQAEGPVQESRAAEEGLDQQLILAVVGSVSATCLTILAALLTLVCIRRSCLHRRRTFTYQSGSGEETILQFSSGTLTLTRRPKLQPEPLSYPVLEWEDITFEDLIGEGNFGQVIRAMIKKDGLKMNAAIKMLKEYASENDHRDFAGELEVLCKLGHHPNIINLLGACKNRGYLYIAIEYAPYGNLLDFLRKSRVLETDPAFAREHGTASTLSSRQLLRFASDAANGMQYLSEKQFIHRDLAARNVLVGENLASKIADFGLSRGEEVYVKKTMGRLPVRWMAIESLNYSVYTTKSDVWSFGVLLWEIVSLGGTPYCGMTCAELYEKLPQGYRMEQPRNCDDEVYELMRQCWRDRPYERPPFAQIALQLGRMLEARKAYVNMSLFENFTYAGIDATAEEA
Experimental: as §1

AURKB = AURKB (Homo sapiens (Human), UniProt Q96GD4); assay: as above
Chain of AURKB (Q96GD4 whole entry): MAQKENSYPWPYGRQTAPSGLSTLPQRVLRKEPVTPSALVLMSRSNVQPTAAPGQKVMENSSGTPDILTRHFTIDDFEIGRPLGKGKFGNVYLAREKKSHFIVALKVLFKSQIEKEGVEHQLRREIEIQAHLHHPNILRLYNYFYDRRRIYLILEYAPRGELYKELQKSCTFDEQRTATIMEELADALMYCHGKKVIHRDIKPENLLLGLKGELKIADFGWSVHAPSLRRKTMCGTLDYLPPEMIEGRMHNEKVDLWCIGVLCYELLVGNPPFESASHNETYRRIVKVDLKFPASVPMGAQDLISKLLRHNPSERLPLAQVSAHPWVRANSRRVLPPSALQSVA
Experimental: as §1

MAP3K19 = MAP3K19 (Homo sapiens (Human), UniProt Q56UN5); assay: as above
Experimental: as §1

FLT3 = FLT3 (Homo sapiens (Human), UniProt P36888); assay: as above
Experimental: as §1

TEK = TEK (Homo sapiens (Human), UniProt Q02763); assay: as above
Chain of TEK (Q02763 23-1124): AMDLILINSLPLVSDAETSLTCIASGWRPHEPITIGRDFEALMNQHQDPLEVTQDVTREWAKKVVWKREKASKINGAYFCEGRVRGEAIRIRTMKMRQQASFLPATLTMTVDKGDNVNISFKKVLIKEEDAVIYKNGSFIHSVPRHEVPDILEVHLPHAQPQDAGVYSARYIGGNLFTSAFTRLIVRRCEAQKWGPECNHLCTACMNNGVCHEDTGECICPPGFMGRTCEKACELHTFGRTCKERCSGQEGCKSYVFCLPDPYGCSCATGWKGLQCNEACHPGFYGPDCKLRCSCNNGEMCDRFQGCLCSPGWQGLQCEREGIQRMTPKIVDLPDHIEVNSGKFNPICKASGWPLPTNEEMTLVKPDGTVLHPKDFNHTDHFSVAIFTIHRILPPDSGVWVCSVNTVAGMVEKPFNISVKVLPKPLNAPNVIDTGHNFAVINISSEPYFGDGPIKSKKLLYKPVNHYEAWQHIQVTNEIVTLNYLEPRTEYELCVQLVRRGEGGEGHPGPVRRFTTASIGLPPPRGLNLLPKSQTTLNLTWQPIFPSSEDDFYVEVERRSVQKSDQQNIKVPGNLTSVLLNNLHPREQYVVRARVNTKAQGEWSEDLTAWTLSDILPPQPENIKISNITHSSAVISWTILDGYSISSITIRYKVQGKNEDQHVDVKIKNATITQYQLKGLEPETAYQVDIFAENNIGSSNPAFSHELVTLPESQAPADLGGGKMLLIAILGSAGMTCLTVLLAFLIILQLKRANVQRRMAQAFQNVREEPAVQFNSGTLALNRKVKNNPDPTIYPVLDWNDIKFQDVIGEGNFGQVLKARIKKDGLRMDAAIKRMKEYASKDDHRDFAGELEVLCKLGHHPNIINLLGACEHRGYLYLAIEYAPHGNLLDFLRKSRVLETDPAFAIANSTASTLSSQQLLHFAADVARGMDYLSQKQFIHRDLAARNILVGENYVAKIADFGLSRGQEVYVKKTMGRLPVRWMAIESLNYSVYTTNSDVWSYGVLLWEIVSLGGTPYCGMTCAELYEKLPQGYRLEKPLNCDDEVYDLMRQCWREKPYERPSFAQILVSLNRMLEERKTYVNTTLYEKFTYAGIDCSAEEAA
Experimental: as §1

MUSK = MUSK (Homo sapiens (Human), UniProt O15146); assay: as above
Chain of MUSK (O15146 24-869): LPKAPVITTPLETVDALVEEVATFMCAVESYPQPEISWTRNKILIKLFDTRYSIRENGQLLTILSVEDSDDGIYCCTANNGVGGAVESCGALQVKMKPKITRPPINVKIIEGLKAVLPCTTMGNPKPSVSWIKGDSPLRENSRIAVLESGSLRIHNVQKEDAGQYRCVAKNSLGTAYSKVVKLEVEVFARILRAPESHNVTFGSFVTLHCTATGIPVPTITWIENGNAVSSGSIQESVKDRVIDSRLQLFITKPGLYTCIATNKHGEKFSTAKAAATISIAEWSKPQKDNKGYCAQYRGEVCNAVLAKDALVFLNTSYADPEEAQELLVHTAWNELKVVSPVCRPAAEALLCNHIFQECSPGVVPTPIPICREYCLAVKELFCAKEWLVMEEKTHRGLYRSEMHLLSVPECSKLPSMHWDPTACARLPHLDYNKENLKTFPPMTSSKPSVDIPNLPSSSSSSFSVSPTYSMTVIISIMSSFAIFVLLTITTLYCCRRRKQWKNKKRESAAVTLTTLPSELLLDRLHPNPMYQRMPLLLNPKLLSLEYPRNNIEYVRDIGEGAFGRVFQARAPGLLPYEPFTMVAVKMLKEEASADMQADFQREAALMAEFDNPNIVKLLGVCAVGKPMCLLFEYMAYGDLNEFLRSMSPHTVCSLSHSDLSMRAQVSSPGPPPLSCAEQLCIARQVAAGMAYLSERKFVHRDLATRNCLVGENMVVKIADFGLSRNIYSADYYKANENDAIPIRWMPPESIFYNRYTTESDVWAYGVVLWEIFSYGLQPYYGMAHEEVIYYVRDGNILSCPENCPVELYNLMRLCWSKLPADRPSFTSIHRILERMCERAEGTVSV
Experimental: as §1

AURKC = AURKC (Homo sapiens (Human), UniProt Q9UQB9); assay: as above
Experimental: as §1

DYRK1A = DYRK1A (Homo sapiens (Human), UniProt Q13627); assay: as above
Experimental: as §1

CLK1 = CLK1 (Homo sapiens (Human), UniProt P49759); assay: as above
Chain of CLK1 (P49759 whole entry): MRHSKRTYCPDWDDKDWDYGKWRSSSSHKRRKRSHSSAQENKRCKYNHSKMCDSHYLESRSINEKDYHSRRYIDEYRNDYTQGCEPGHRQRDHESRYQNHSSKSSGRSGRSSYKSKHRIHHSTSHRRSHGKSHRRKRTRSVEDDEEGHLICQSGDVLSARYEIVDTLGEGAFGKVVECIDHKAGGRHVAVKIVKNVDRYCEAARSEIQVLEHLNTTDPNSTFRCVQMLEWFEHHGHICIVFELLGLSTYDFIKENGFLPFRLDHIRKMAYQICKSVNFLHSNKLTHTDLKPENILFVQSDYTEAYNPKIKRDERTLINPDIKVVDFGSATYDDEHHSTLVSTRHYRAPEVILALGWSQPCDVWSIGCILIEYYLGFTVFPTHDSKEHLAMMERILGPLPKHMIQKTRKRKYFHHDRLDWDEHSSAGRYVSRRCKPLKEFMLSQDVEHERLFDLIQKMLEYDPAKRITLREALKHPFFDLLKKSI
Experimental: as §1

[1] = Metabolic stability in human liver microsomes (HLM)
[2] = Metabolic stability in mouse liver microsomes (MLM)
192 kinases = assay: Promega K192 cell-based NanoBRET kinase occupancy assay (panel); settings: 1 μM
Experimental: as §1

Compound: CN(Cc1ccn2ncc(C(N)=O)c2c1)C(=O)Nc1ccc(OC(F)(F)F)cc1 [CDD-3031, 5-((1-methyl-3-(4-(trifluoromethoxy)phenyl)ureido)methyl)pyrazolo[1,5-a]pyridine-3-carboxamide]
- receptor occupancy at 1 µM (STK36; average, read-out: STK36 kinase occupancy, Average (%)): 4.82%
- receptor occupancy at 1 µM (STK36; replicate 1, read-out: STK36 kinase occupancy, Replicate 1 (%)): -3.75%
- receptor occupancy at 1 µM (STK36; replicate 2, read-out: STK36 kinase occupancy, Replicate 2 (%)): 13.4%
- receptor occupancy at 1 µM (JAK2 (V617F); average, read-out: JAK2 (V617F) kinase occupancy, Average (%)): 9.92%
- receptor occupancy at 1 µM (JAK2 (V617F); replicate 1, read-out: JAK2 (V617F) kinase occupancy, Replicate 1 (%)): 31.4%
- receptor occupancy at 1 µM (JAK2 (V617F); replicate 2, read-out: JAK2 (V617F) kinase occupancy, Replicate 2 (%)): -11.6%
- receptor occupancy at 1 µM (NEK5; average, read-out: NEK5 kinase occupancy, Average (%)): 5.02%
- receptor occupancy at 1 µM (NEK5; replicate 1, read-out: NEK5 kinase occupancy, Replicate 1 (%)): -0.81%
- receptor occupancy at 1 µM (NEK5; replicate 2, read-out: NEK5 kinase occupancy, Replicate 2 (%)): 10.8%
- receptor occupancy at 1 µM (MKNK2; average, read-out: MKNK2 kinase occupancy, Average (%)): 4.61%
- receptor occupancy at 1 µM (MKNK2; replicate 1, read-out: MKNK2 kinase occupancy, Replicate 1 (%)): 7.96%
- receptor occupancy at 1 µM (MKNK2; replicate 2, read-out: MKNK2 kinase occupancy, Replicate 2 (%)): 1.26%
- receptor occupancy at 1 µM (TIE1; average, read-out: TIE1 kinase occupancy, Average (%)): 14%
- receptor occupancy at 1 µM (TIE1; replicate 1, read-out: TIE1 kinase occupancy, Replicate 1 (%)): 8.54%
- receptor occupancy at 1 µM (TIE1; replicate 2, read-out: TIE1 kinase occupancy, Replicate 2 (%)): 19.5%
- receptor occupancy at 1 µM (AURKB; average, read-out: AURKB kinase occupancy, Average (%)): 7.37%
- receptor occupancy at 1 µM (AURKB; replicate 1, read-out: AURKB kinase occupancy, Replicate 1 (%)): 3.71%
- receptor occupancy at 1 µM (AURKB; replicate 2, read-out: AURKB kinase occupancy, Replicate 2 (%)): 11%
- receptor occupancy at 1 µM (MAP3K19; average, read-out: MAP3K19 kinase occupancy, Average (%)): 13.3%
- receptor occupancy at 1 µM (MAP3K19; replicate 1, read-out: MAP3K19 kinase occupancy, Replicate 1 (%)): 53.3%
- receptor occupancy at 1 µM (MAP3K19; replicate 2, read-out: MAP3K19 kinase occupancy, Replicate 2 (%)): -26.6%
- receptor occupancy at 1 µM (FLT3; average, read-out: FLT3 kinase occupancy, Average (%)): 7.12%
- receptor occupancy at 1 µM (FLT3; replicate 1, read-out: FLT3 kinase occupancy, Replicate 1 (%)): -10.3%
- receptor occupancy at 1 µM (FLT3; replicate 2, read-out: FLT3 kinase occupancy, Replicate 2 (%)): 24.6%
- receptor occupancy at 1 µM (TEK; average, read-out: TEK kinase occupancy, Average (%)): 10.2%
- receptor occupancy at 1 µM (TEK; replicate 1, read-out: TEK kinase occupancy, Replicate 1 (%)): 13.1%
- receptor occupancy at 1 µM (TEK; replicate 2, read-out: TEK kinase occupancy, Replicate 2 (%)): 7.34%
- receptor occupancy at 1 µM (MUSK; average, read-out: MUSK kinase occupancy, Average (%)): 19.8%
- receptor occupancy at 1 µM (MUSK; replicate 1, read-out: MUSK kinase occupancy, Replicate 1 (%)): 17.5%
- receptor occupancy at 1 µM (MUSK; replicate 2, read-out: MUSK kinase occupancy, Replicate 2 (%)): 22.2%
- receptor occupancy at 1 µM (AURKC; average, read-out: AURKC kinase occupancy, Average (%)): 4.09%
- receptor occupancy at 1 µM (AURKC; replicate 1, read-out: AURKC kinase occupancy, Replicate 1 (%)): -7.48%
- receptor occupancy at 1 µM (AURKC; replicate 2, read-out: AURKC kinase occupancy, Replicate 2 (%)): 15.7%
- receptor occupancy at 1 µM (DYRK1A; average, read-out: DYRK1A kinase occupancy, Average (%)): 6.5%
- receptor occupancy at 1 µM (DYRK1A; replicate 1, read-out: DYRK1A kinase occupancy, Replicate 1 (%)): 8.58%
- receptor occupancy at 1 µM (DYRK1A; replicate 2, read-out: DYRK1A kinase occupancy, Replicate 2 (%)): 4.42%
- receptor occupancy at 1 µM (CLK1; average, read-out: CLK1 kinase occupancy, Average (%)): 4.92%
- receptor occupancy at 1 µM (CLK1; replicate 1, read-out: CLK1 kinase occupancy, Replicate 1 (%)): 3.65%
- receptor occupancy at 1 µM (CLK1; replicate 2, read-out: CLK1 kinase occupancy, Replicate 2 (%)): 6.2%
- half-life [1]: > 16.7 h
- half-life [2]: 13.1 h
- microsomal CLint [2]: 1.8 µL/min/mg
- selectivity in 192-kinase occupancy panel (192 kinases): greater selectivity for NTRK2 and NTRK1
